{"source": "patent US20230048512A1", "about": "“COCRYSTALS OF PTEROSTILBENE AND COMPOSITIONS COMPRISING THEM” (CENTER FOR INTELLIGENT RESEARCH IN CRYSTAL ENGINEERING, S.L., priority 2019, published 2023)", "key": {"[1]": {"assay": "Dissolution rate of tablets of the solid forms in FaSSIF v2 (small-scale dissolution assay, UV quantification, Noyes-Whitney fit)", "assay_type": "physicochemical", "conditions": "FaSSIF v2 (pH 6.5), 25° C., 120 minutes, 3 mm tablet", "procedure": "1. Molar Extinction Coefficient (MEC) determination in FaSSIF v2 medium\nMolar extinction coefficients of pterostilbene and of each coformer were determined by UV-metric titration using a GlpKaTM titrator (Sirius Analytical Instruments, UK). Briefly, a 10 mM stock solution of sample was prepared in DMSO. […] of sample stock solution and 0.25 mL of a 15 mM potassium phosphate buffer were added to 10 mL of a 0.15 M KCI solution, which in turn contained 17.9 mg of FaSSIF v2 powder. The pH of the sample solution was adjusted to 2 with 0.5 M HCI before starting the titration, and then the titration was done using 0.5 M KOH up to pH 12. The UV absorption spectra (between 250 and 450 nm) of the solution were recorded at each titrant addition by a fiber optic dip-probe. The collected data were refined through the RefinamentPro software, and the pKa values and Molar Extinction Coefficients obtained by Target Factor Analysis.\n2. Dissolution Rate experiments • Tablet production: tablets of 3 mm diameter were prepared using a manual hydraulic tablet press (Applied Measurements Ltd, UK). The applied pressure was 100 Kg for 2 min. From 10 to 15 mg of each solid form, pterostilbene or cocrystal, were weighted. The total exposed surface area was 0.5 cm^2. • Medium: FaSSIF v2 (pH 6.5), with corresponding amount of phosphoric (28.4 mM) acid instead of maleic acid. • Dissolution tests were performed with a small-scale dissolution assay installed in a GlpKaTM titrator (Sirius Analytical Instruments, UK). • Dissolution time and temperature: 120 minutes and 25° C. • Procedure: 15 mL of FaSSIF v2 was added into the sample vial containing the tablet. Spectra collection started immediately after. Spectra were recorded every 30 seconds between 250 and 450 nm through a Sirius D-PAS spectrometer with a bifurcated optic fibre dip probe (Hellma Analytics). The medium was stirred at a constant rate.\nThe concentration of pterostilbene in solution at each time point is determined from the spectroscopic data by applying the Beer-Lambert law, using previously determined molar extinction coefficients of pure pterostilbene. Spectrum regions where signal is saturated (A>1.5) or presenting medium interferences were discarded. Then, the concentration data were converted into absolute sample quantities, and used to generate the graphs showing the sample quantity vs. time.\n4. Determination of the dissolution rate\nDissolution rate is obtained through the fit of the first order Noyes-Whitney exponential equation to the data: […]\nIn this equation, [X]t is the weight in grams of compound in solution at the experiment time (min); S is the extrapolated solubility (g) of pterostilbene; kd is the rate constant for dissolution (min^−1); and to (min) is a term allowing for a temporal offset. Results are calculated using a refinement process in which S, kd and t0 are varied in order to minimize the root mean square deviation between the modelled concentrations and the measured concentrations. The dissolution rate (g min^−1) is given by the product kdS (T. Gravestock et al., 2011)."}, "[2]": {"assay": "Pharmacokinetics of pterostilbene in rat plasma after single oral administration", "assay_type": "in vivo, Male Sprague-Dawley rats", "conditions": "for Plasma concentration of pterostilbene, Mean (arithmetic) / Plasma concentration of pterostilbene, individual animals 1-5: 20 mg/kg P56-VIII (13.5 mg/kg as pterostilbene) single oral", "procedure": "In-life phase • Animals: Male Sprague-Dawley rats (weight: 417.9-458.6 g) • Administration: Oral (single dose) • Dose: 20 mg/kg P56 (pterostilbene, free base) 20 mg/kg P56-VIII (cocrystal of pterostilbene and picolinic acid; 13.5 mg/kg as pterostilbene free base) • Formulation: Suspension (0.5% carboxymethylceluulose, CMC) • Adm. volume: 10 ml/kg • Fed/fasted state: Fasted (at least 8 hours prior dosing) • Sampling: Six blood samples/animal (1, 2, 4, 6, 8 and 24 hours post-adm.) • Plasma samples: Plasma samples using K3-EDTA as anticoagulant.\nSamples were immediately frozen at −80° C. until their analysis\nPharmacokinetic analysis was performed by non-compartmental pharmacokinetic analysis using Kinetica v5 software (Alfasoft Limited, Luton, UK). Descriptive statistics was performed using Microsoft Excel spreadsheet 2007 (Microsoft Inc, Redmond, US). Plasma bioanalysis was made by LC-MS/MS.\nConcentration values below the lower limit of quantification (BLQ) were set to zero, whereas missing concentration values were not considered for statistical and pharmacokinetic evaluations. All computations used the nominal sampling times, nominal doses and concentrations levels were expressed as free base. The numerical data presented below were computer generated. Because of rounding, recalculation of derived values from individual data presented herein below could, in some instances, yield minor variation.\nThe area under the plasma concentration-time curve from 0 to t (AUC0-t) was determined by using the trapezoidal rule. […] The terminal half-life was determined according to the following rules: (a) time interval equal to at least 1.5 x t1/2, (b) regression analysis (straight line on the log-transformed scale) contained data from at least 3 different time points in the terminal phase and as many data points as possible (always including the last quantifiable concentration but excluding the Cmax), and (c) the coefficient of determination (r^2) was ≥0.85. If at least one of these three conditions was not fulfilled, the terminal half-life and the parameters depending on t1/2 were listed but flagged as not reliably calculated. If the percentage of extrapolated AUC was more than 20%, the individual AUCinf result were listed but flagged as not reliably calculated. Flagged parameters were not included in descriptive statistics and statistical testing procedures."}, "[3]": {"conditions": "20 mg/kg P56-VIII (13.5 mg as pterostilbene) single oral, fasted male SD rats"}, "[4]": {"conditions": "20 mg/kg cocrystal (13.5 mg/kg as pterostilbene) vs 20 mg/kg P56, single oral, rats"}}, "note": "“And” between values parts separate entries of the source, which are not always exact repeats. Identical values can stand only once.", "data": [{"smiles": "COc1cc(/C=C/c2ccc(O)cc2)cc(OC)c1", "note": "[Pterostilbene (Form VI), Form VI of pterostilbene]", "values": [{"measurement": "dissolution rate", "setting": "[1]", "value": "7.4 ± 1.8", "unit": "nmol/min"}]}, {"smiles": "COc1cc(/C=C/c2ccc(O)cc2)cc(OC)c1.Cn1c(=O)c2c(ncn2C)n(C)c1=O", "note": "[Pterostilbene:caffeine cocrystal, reference compound]", "values": [{"measurement": "dissolution rate", "setting": "[1]", "value": "45.4 ± 9.2", "unit": "nmol/min"}]}, {"smiles": "COc1cc(/C=C/c2ccc(O)cc2)cc(OC)c1.COc1cc(/C=C/c2ccc(O)cc2)cc(OC)c1.NCCN", "note": "[Pterostilbene:ethylendiamine cocrystal, pterostilbene:ethylendiamine cocrystal (2:1)]", "values": [{"measurement": "dissolution rate", "setting": "[1]", "value": "176.1 ± 12.6", "unit": "nmol/min"}]}, {"smiles": "COc1cc(/C=C/c2ccc(O)cc2)cc(OC)c1.ClCCl.Cn1c(=O)c2[nH]cnc2n(C)c1=O", "note": "[Pterostilbene:theophylline cocrystal, cocrystal solvate of pterostilbene:theophylline: dichloromethane (1:1:1)]", "values": [{"measurement": "dissolution rate", "setting": "[1]", "value": "33.5 ± 6.7", "unit": "nmol/min"}]}, {"smiles": "COc1cc(/C=C/c2ccc(O)cc2)cc(OC)c1.COc1cc(/C=C/c2ccc(O)cc2)cc(OC)c1.Cc1cnc(C)c(C)n1", "note": "[cocrystal of pterostilbene:2,3,5-trimethylpirazine (2:1)]", "values": [{"measurement": "dissolution rate", "setting": "[1]", "value": "52.0 ± 5.8", "unit": "nmol/min"}]}, {"smiles": "COc1cc(/C=C/c2ccc(O)cc2)cc(OC)c1.O=C(O)c1ccccn1", "note": "[cocrystal of pterostilbene:picolinic acid (1:1)]", "values": [{"measurement": "dissolution rate", "setting": "[1]", "value": "427.8 ± 29.5", "unit": "nmol/min"}, {"measurement": "AUC0-t, Mean", "setting": "[2]; [3]", "value": 4699, "unit": "ng·h/mL"}, {"measurement": "AUC0-t, individual animals 1-5", "setting": "[2]; [3]", "value": "4384 ng·h/mL and 3776 ng·h/mL and 4059 ng·h/mL and 9824 ng·h/mL and 1452 ng·h/mL"}, {"measurement": "AUCinf, Mean", "setting": "[2]; [3]", "value": 4772, "unit": "ng·h/mL"}, {"measurement": "AUCinf, individual animals 1-5", "setting": "[2]; [3]", "value": "4422 ng·h/mL and 3805 ng·h/mL and 4178 ng·h/mL and 9855 ng·h/mL and 1602 ng·h/mL"}, {"measurement": "Cmax, Mean", "setting": "[2]; [3]", "value": 567.8, "unit": "ng/mL"}, {"measurement": "Cmax, individual animals 1-5", "setting": "[2]; [3]", "value": "695.2 ng/mL and 337.4 ng/mL and 513.3 ng/mL and 991.8 ng/mL and 301.1 ng/mL"}, {"measurement": "t1/2 (terminal elimination half-life), Mean", "setting": "[2]; [3]", "value": 3.3, "unit": "h"}, {"measurement": "t1/2 (terminal elimination half-life), individual animals 1-5", "setting": "[2]; [3]", "value": "3.7 h and 3.2 h and 5.1 h and 2.8 h and 1.9 h"}, {"measurement": "tmax, Median", "setting": "[2]; [3]", "value": 2, "unit": "h"}, {"measurement": "tmax, individual animals 1-5", "setting": "[2]; [3]", "value": "1 h and 6 h and 4 h and 2 h"}, {"measurement": "Plasma concentration of pterostilbene, Mean (arithmetic)", "setting": "[2]; fasted male SD rats, 1 h", "value": 504.7, "unit": "ng/mL"}, {"measurement": "Plasma concentration of pterostilbene, individual animals 1-5", "setting": "[2]; fasted male SD rats, 1 h", "value": "513.3 ng/mL and 980.0 ng/mL and 189.8 ng/mL and 695.2 ng/mL and 145.5 ng/mL"}, {"measurement": "Plasma concentration of pterostilbene, Mean (arithmetic)", "setting": "[2]; fasted male SD rats, 2 h", "value": 514.3, "unit": "ng/mL"}, {"measurement": "Plasma concentration of pterostilbene, individual animals 1-5", "setting": "[2]; fasted male SD rats, 2 h", "value": "462.8 ng/mL and 952.8 ng/mL and 301.1 ng/mL and 587.9 ng/mL and 266.9 ng/mL"}, {"measurement": "Plasma concentration of pterostilbene, Mean (arithmetic)", "setting": "[2]; fasted male SD rats, 4 h", "value": 451.7, "unit": "ng/mL"}, {"measurement": "Plasma concentration of pterostilbene, individual animals 1-5", "setting": "[2]; fasted male SD rats, 4 h", "value": "262.6 ng/mL and 991.8 ng/mL and 224.7 ng/mL and 538.5 ng/mL and 240.8 ng/mL"}, {"measurement": "Plasma concentration of pterostilbene, Mean (arithmetic)", "setting": "[2]; fasted male SD rats, 6 h", "value": 305.6, "unit": "ng/mL"}, {"measurement": "Plasma concentration of pterostilbene, individual animals 1-5", "setting": "[2]; fasted male SD rats, 6 h", "value": "150.6 ng/mL and 663.7 ng/mL and 153.8 ng/mL and 222.5 ng/mL and 337.4 ng/mL"}, {"measurement": "Plasma concentration of pterostilbene, Mean (arithmetic)", "setting": "[2]; fasted male SD rats, 8 h", "value": 214.8, "unit": "ng/mL"}, {"measurement": "Plasma concentration of pterostilbene, individual animals 1-5", "setting": "[2]; fasted male SD rats, 8 h", "value": "210.5 ng/mL and 449.2 ng/mL and 53.5 ng/mL and 136.4 ng/mL and 224.6 ng/mL"}, {"measurement": "Plasma concentration of pterostilbene, Mean (arithmetic)", "setting": "[2]; fasted male SD rats, 24 h", "value": 7.54, "unit": "ng/mL"}, {"measurement": "Plasma concentration of pterostilbene, individual animals 1-5", "setting": "[2]; fasted male SD rats, 24 h, BLQ = <5 ng/ml", "value": "16.4 ng/ml and 7.67 ng/ml and BLQ and 7.16 ng/ml and 6.50 ng/ml"}, {"measurement": "increase in AUCinf compared to the P56 formulation", "setting": "[2]; [4]", "value": "about 10 fold"}, {"measurement": "increase in Cmax compared to the P56 formulation", "setting": "[2]; [4]", "value": "around 6 fold"}]}, {"smiles": "COc1cc(/C=C/c2ccc(O)cc2)cc(OC)c1.COc1cc(/C=C/c2ccc(O)cc2)cc(OC)c1.O=C(O)c1ccccn1", "note": "[cocrystal of pterostilbene:picolinic acid (2:1)]", "values": [{"measurement": "dissolution rate", "setting": "[1]", "value": "351.3 ± 18.9", "unit": "nmol/min"}]}, {"smiles": "COc1cc(C=Cc2ccc(O)cc2)cc(OC)c1.COc1cc(C=Cc2ccc(O)cc2)cc(OC)c1.NCCN.O.O", "note": "[pterostilbene:ethylendiamine:H2O cocrystal hydrate (2:1:2)]", "values": [{"measurement": "dissolution rate", "setting": "[1]", "value": "230.4 ± 26.59", "unit": "nmol/min"}]}]}
